Laboratory results as given in patent US10675253B2, “Methods of diagnosis and treatment involving nitrite” (Board of Supervisors of Louisiana State University and …, priority 2017, dated 2020).
Read-outs that look alike come from different tables or passages of the source.

Legend:
[1] = nitrite reduction to NO facilitated by ascorbic acid, DADS, or DATS; settings: FIGS. 4, 6; over one hour
Source text: FIG. 4 is a line graph of experiments showing nitrite reduction to NO facilitated by ascorbic acid, DADS, or DATS;
FIG. 5 is a pair of line graphs of two experiments showing nitrite reduction to NO facilitated by ascorbic acid over one hour;
FIG. 6 is a pair of line graphs of two experiments showing nitrite reduction to NO facilitated by DADS over one hour;
FIG. 7 is a pair of line graphs of two experiments showing nitrite reduction to NO facilitated by DATS over one hour;
Turning to FIGS. 1-7, an embodiment of the disclosed invention, including a method of treatment of various conditions by increasing nitrite conversion to nitric oxide via DADS is described. This embodiment of the disclosed invention describes chemical reactions that may be useful for stimulating nitrite conversion to nitric oxide, namely diallyl disulfide (DADS) reduction of nitrite to nitric oxide. […] This would be useful for various purposes including unique ways to stimulate nitrite reduction to nitric oxide within an organism.
While it has been shown that increasing NO levels can be therapeutic for a number of conditions, the biochemical mechanism of nitrite reduction to NO, and thereby increasing NO levels, is poorly understood. Some agents can facilitate such reduction, such as ascorbic acid, but do so weakly. […]

xanthine oxidase (XO) = xanthine oxidase (XO) (Homo sapiens, UniProt P47989); assay: XO dependent nitrite reduction to NO / XO activity; type: biochemical
xanthine oxidase (XO), sequence (P47989 whole entry, species assumed): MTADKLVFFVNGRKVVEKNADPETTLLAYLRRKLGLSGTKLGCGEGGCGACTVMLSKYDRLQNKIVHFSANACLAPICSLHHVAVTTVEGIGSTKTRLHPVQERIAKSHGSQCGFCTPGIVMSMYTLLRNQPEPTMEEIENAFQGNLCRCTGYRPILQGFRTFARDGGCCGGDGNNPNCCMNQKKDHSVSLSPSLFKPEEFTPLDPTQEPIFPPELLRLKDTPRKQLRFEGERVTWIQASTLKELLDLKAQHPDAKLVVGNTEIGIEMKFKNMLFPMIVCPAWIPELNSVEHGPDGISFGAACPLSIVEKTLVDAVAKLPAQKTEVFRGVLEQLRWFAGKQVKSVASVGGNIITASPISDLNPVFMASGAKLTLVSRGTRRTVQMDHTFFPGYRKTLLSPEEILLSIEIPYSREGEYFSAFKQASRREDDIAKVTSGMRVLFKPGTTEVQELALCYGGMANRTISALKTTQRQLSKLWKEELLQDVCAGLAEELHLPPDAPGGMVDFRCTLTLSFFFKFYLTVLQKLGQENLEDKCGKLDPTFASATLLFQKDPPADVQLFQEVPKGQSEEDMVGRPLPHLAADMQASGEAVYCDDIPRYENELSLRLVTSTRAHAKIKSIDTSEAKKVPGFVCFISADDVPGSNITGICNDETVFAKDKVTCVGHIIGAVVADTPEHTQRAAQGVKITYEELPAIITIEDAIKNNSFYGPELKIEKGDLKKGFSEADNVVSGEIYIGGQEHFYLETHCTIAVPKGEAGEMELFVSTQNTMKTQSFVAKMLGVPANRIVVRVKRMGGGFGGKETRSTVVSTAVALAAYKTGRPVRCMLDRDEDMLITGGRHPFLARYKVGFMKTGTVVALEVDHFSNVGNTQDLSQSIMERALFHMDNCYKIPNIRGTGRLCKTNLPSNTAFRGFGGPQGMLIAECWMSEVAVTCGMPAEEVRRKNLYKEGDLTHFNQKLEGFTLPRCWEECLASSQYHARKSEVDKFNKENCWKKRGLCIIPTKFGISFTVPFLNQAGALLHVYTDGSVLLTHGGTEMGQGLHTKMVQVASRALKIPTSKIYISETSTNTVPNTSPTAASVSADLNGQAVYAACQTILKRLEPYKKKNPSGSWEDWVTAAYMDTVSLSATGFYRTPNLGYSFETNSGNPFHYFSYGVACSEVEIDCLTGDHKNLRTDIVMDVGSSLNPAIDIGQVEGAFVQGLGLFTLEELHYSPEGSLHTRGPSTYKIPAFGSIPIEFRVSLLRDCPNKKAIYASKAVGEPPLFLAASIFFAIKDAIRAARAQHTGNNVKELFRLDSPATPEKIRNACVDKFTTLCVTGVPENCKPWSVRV
Source text: Referring to FIGS. 1-8, a further embodiment of the disclosed invention, including a method of treatment of various conditions by increasing XO associated nitrite conversion to nitric oxide is described. This embodiment of the disclosed invention describes chemical reactions that may be useful for stimulating xanthine oxidase (XO) to increase nitrite conversion to nitric oxide, namely diallyl trisulfide (DATS) stimulation of XO reduction of nitrite to nitric oxide. This would be useful for various purposes including unique ways to stimulate nitrite reduction to nitric oxide within an organism.
DATS may therefore be administered alone, or for example, with nitrite and/or XO, as a therapeutic for known NO mediated conditions, including inflammation, wound healing, and infections. DATS can be administered in a variety of methods, including nanoformulation compounds, especially for creams or lotions.

[2] = ascorbic acid as comparison agent; general statement; cited from earlier work

SMILES: C=CCSSCC=C [DADS, diallyl disulfide]
- nitrite reduction to NO [1]: selectively stimulate nitrite reduction to NO

SMILES: C=CCSSSCC=C [DATS, diallyl trisulfide]
- XO dependent nitrite reduction to NO (xanthine oxidase (XO)): selectively increases XO dependent nitrite reduction to NO
- XO activity & NO production (xanthine oxidase (XO); FIG. 8): differentially affects XO activity & NO production

SMILES: O=C1O[C@H]([C@@H](O)CO)C(O)=C1O [ascorbic acid]
- nitrite reduction to NO [2]: weakly
